# Data taken from ChEMBL document CHEMBL1201862, “PubChem BioAssay data set” (2004).
# Calls of active or inactive are those of the source.
# Columns and labels:
# Oxytocin receptor = Oxytocin receptor (Homo sapiens, UniProt P30559); test: Fluorescence-based cell-based high throughput dose response assay for agonists of the Oxytocin Receptor (OXTR). [Related pubchem assays: 2435 (Primary screen (OXTR agonists in singlicate)), 434991 (Counterscreen (V1R agonists in triplicate)), 2482 (Summary (OXTR agonists)), 434963 (Confirmation screen (OXTR agonists in triplicate))]; assay type: functional
# [1] = molecular target: T1, Corticotropin-releasing factor receptor 2/Corticotropin-releasing factor-binding protein (Homo sapiens, UniProt P24387+Q13324); test: activators of CRF receptor 2 with binding protein – uHTS hits, confirmation (AID 602473); assay type: functional; settings: read-out: EC50_Mean
# T1 sequence (Q13324 whole entry): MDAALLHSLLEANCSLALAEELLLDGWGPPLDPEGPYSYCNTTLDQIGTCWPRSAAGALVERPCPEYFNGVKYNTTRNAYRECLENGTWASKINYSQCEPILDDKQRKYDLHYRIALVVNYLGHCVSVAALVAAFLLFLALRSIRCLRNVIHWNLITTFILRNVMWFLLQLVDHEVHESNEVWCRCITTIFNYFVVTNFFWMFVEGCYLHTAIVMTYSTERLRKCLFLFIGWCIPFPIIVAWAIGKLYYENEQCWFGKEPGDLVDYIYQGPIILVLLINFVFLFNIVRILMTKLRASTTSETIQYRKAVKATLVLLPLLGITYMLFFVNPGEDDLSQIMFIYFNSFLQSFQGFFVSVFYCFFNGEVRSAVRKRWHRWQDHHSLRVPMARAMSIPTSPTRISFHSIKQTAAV
# T1 sequence (P24387 whole entry): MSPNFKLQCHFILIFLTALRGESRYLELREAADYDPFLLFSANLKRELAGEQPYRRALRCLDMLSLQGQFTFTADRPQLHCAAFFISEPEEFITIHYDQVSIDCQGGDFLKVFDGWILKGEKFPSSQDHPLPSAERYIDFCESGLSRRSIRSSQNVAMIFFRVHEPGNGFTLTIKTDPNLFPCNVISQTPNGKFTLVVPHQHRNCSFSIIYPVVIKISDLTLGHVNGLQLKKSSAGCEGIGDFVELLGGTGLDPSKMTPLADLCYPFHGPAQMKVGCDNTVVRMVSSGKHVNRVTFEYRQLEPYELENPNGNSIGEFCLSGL
# Vasopressin V1a receptor = Vasopressin V1a receptor (Homo sapiens, UniProt P37288); test: Counterscreen for Oxytocin Receptor (OXTR) agonists: Fluorescence-based cell-based high throughput dose response assay to identify agonists of the vasopressin 1 receptor (V1R). [Related pubchem assays: 2435 (Primary screen (OXTR agonists in singlicate)), 434991 (Counterscreen (V1R agonists in triplicate)), 2482 (Summary (OXTR agonists)) …; assay type: functional
# [2] = viability of uninfected HEp-2 cells – cell-based, HTS, cytotoxicity control for RSV inhibitor project, dose response (AID 2410); assay type: functional; settings: human respiratory syncytial virus
# [3] = viability loss in Vero cells – cytotoxicity control for Vif-APOBEC3G degradation inhibitor project, dose response (AID 1117358); assay type: functional; settings: Vero
# [4] = molecular target: Serine/threonine-protein phosphatase PP1-alpha catalytic subunit (Homo sapiens, UniProt P62136); test: inhibition of protein phosphatase 1 activity – biochemical, fluorescence, dose response (AID 2403);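 note: phosphatase turnover of OMFP into fluorescent 3-O-methylfluorescein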
# [5] = molecular target: T2, Serine/threonine-protein phosphatase (Homo sapiens, UniProt Q9BPW0); test: Counterscreen for inhibitors of PP1: fluorescence-based biochemical high throughput dose response assay to identify inhibitors of Protein Phosphatase 5 (PP5). [Related pubchem assays: 2034 (Summary (PP5 inhibitors)), 1987 (PP5 inhibitors in singlate), 2235 (PP1 inhibitors in singlate)]
# T2 sequence (Q9BPW0 whole entry): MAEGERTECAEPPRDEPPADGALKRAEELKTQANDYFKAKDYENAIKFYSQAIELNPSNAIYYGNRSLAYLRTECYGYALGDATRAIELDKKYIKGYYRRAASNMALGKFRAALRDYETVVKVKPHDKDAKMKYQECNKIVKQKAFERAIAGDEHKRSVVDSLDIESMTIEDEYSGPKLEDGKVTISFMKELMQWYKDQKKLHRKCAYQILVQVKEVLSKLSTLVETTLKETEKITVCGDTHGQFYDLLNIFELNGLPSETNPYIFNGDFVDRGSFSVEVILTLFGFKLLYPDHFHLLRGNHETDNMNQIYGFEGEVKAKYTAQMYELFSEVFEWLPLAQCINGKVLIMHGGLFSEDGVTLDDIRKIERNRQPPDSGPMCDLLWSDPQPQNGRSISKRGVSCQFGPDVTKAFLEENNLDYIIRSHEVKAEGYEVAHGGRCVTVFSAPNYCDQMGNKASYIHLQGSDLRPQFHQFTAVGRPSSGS
# Nonstructural protein 1 = Nonstructural protein 1 (Influenza A virus, UniProt Q194T2); assay type: functional, Influenza A virus (A/California/07/2009(H1N1))
# cells = assay type: functional
# [6] = Vero E6 cell cytotoxicity, dose response, cytotoxicity control for non-replicating M. tuberculosis project, secondary assay (AID 492998); assay type: functional, VeroE6; settings: Vero C1008
# [7] = THP-1 cell cytotoxicity, dose response, cytotoxicity control for non-replicating M. tuberculosis project (AID 489025); assay type: functional
# Wee1-like protein kinase = Wee1-like protein kinase (Homo sapiens, UniProt P30291); test: Dose Response Cell-based Assay for Inhibitors of Wee1 Degradation. [Related pubchem assays: 1410, 1321 ]; assay type: functional
# [8] = HEK-293T viability loss after treatment – luminescence, T-cell screen hits, cytotoxicity control for TCR NF-kB inhibitor project, dose response (AID 489026); assay type: functional, cell-based;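 note: cells exposed to compound about 14 hours before the viability readout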
# [9] = molecular target: G2/mitotic-specific cyclin-B1 (Homo sapiens, UniProt P14635); test: Counterscreen assay for inhibitors of Wee1 degradation: dose response cell-based assay to identify inhibitors of cyclin B degradation. [Related pubchem assays: 1410, 1321 ]; assay type: functional
# [10] = molecular target: Induced myeloid leukemia cell differentiation protein Mcl-1 (Homo sapiens, UniProt Q07820); test: blockers of MCL1 binding to BIM peptide – biochemical, fluorescence polarization, BIM-BH3 peptide, 1536-well, dose response (AID 2217)
# [11] = molecular target: T3, Mannose-6-phosphate isomerase (Homo sapiens, UniProt P34949); test: MPI inhibition at elevated mannose 6-phosphate – biochemical, fluorescence intensity, high mannose 6-phosphate, primary screen (AID 1220)
# T3 sequence (P34949 whole entry): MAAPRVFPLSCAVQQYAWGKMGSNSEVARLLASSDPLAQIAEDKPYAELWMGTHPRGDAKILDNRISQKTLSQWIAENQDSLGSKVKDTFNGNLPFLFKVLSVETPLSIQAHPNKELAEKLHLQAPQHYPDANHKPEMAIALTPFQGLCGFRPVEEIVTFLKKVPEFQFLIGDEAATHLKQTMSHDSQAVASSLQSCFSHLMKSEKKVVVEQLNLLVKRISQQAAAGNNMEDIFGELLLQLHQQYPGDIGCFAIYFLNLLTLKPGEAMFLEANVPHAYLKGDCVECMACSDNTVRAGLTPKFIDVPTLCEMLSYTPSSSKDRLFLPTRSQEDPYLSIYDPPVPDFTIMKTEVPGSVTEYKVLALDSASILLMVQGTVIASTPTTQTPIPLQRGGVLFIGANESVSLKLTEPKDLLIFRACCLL
# Large T antigen = Large T antigen (Simian virus 40, UniProt P03070); assay type: functional, Betapolyomavirus macacae;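 note: Confirmatory-stage PubChem screen for compounds that inhibit SV40 T antigen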
# Aspartyl aminopeptidase = Aspartyl aminopeptidase (Plasmodium falciparum 3D7, UniProt Q8I2J3)
# Bcl-2-like protein 1 = Bcl-2-like protein 1 (Homo sapiens, UniProt Q07817); test: blockers of BCLXL peptide binding – biochemical, fluorescence polarization, 1536-well, selectivity assay for MCL1 inhibitor project, dose response (AID 2218)
# [12] = molecular target: T4, Histone-lysine N-methyltransferase NSD2 (Homo sapiens, UniProt O96028); assay type: biochemical
# T4 sequence (O96028 whole entry): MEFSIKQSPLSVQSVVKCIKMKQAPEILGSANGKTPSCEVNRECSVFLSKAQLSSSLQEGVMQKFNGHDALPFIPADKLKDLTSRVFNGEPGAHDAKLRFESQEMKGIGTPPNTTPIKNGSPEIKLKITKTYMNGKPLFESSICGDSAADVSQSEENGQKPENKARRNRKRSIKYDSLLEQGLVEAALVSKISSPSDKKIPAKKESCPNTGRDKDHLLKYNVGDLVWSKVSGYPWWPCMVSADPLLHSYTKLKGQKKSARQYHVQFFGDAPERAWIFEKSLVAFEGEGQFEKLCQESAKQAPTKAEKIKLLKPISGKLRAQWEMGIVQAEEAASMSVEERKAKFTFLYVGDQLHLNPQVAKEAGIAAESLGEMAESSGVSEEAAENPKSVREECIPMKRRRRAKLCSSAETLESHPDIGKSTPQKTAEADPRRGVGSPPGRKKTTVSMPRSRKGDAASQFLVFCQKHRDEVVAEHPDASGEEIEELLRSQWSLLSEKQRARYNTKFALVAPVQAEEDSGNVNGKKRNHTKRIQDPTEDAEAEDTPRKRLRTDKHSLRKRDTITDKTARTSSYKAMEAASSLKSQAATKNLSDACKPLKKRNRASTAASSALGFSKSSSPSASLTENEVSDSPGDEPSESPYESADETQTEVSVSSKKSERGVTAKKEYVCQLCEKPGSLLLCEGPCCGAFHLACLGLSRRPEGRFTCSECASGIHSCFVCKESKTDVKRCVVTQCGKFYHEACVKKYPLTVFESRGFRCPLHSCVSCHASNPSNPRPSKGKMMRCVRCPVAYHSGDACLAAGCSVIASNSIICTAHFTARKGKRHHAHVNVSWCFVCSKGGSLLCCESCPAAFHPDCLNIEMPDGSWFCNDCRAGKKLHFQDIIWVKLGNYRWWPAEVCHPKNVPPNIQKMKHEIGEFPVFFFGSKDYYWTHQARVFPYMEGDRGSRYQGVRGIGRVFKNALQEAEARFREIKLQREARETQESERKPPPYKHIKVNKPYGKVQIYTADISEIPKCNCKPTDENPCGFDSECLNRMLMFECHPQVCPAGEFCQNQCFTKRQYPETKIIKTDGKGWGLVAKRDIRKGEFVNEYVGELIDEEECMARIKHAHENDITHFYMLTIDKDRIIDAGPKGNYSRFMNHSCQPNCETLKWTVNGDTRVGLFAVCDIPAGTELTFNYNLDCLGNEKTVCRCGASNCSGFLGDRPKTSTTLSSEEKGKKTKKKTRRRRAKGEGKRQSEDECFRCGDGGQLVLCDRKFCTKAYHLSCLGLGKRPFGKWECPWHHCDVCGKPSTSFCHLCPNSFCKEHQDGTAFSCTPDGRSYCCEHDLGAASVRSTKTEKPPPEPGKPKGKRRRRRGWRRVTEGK
# [13] = molecular target: T3, Mannose-6-phosphate isomerase; test: MPI enzyme activity inhibition – biochemical, fluorescence intensity, coupled assay, primary screen (AID 1209)
# [14] = molecular target: T5, Rac GTPase-activating protein 1 (Homo sapiens, UniProt Q9H0H5); test: blockers of MgcRacGAP-driven Rac1 GTP hydrolysis – biochemical, ADP Hunter fluorescence, primary and confirmatory, confirmation (AID 624330); assay type: functional
# T5 sequence (Q9H0H5 whole entry): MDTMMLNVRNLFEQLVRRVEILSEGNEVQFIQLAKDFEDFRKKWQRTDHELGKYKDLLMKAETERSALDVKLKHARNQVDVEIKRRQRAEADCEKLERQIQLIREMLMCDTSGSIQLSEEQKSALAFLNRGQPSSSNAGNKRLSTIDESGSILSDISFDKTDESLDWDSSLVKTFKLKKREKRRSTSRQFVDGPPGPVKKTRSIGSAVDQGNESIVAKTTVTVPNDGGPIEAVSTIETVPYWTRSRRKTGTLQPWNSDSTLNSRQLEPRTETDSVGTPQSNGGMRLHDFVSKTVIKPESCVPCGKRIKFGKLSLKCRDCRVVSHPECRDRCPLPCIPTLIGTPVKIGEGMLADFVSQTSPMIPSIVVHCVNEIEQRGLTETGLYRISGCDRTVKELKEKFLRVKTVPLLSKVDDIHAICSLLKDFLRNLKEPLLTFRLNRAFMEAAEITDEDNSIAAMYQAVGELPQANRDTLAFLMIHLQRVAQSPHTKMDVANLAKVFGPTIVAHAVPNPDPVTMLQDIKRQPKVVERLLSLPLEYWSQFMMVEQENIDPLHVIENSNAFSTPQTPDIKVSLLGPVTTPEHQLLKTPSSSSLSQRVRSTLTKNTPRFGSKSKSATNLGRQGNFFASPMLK
# [15] = molecular target: Dual specificity tyrosine-phosphorylation-regulated kinase 1A (Rattus norvegicus, UniProt Q63470); assay type: biochemical, Homo sapiens
# Procathepsin L = Procathepsin L (Homo sapiens, UniProt P07711)
# Procathepsin L, sequence (P07711 whole entry): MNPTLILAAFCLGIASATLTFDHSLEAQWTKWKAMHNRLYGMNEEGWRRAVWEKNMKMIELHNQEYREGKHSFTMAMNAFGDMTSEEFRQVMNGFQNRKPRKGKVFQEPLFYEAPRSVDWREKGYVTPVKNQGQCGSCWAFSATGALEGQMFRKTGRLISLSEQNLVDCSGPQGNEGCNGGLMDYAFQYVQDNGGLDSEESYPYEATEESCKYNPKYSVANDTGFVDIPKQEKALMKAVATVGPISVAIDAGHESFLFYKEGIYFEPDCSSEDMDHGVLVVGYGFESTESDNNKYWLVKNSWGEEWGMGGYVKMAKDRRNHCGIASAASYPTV
# Large T antigen, sequence (P03070 whole entry): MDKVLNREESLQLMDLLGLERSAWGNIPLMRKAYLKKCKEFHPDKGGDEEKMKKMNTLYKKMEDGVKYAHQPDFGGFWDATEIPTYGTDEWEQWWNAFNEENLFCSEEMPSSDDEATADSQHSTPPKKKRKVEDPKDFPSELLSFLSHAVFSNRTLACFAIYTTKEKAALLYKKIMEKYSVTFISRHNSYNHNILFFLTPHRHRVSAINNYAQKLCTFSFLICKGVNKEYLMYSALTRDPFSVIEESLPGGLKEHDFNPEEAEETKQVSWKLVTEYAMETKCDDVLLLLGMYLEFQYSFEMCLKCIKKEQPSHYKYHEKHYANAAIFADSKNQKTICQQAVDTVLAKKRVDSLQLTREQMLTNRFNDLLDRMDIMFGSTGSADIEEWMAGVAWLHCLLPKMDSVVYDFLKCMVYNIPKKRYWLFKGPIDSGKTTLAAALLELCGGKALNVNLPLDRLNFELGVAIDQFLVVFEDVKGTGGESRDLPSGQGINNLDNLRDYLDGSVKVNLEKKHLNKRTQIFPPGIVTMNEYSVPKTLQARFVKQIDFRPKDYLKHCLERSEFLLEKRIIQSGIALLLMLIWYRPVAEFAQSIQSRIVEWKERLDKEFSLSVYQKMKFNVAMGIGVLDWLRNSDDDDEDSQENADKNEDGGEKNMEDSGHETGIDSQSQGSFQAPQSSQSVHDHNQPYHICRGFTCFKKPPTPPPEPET
# Bcl-2-like protein 1, sequence (Q07817 whole entry): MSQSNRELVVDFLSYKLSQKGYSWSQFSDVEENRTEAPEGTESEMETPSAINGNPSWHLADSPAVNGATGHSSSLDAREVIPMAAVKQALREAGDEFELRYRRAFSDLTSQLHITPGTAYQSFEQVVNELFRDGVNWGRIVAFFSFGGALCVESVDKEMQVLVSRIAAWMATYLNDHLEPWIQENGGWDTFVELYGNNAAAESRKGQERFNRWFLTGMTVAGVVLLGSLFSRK
# Induced myeloid leukemia cell differentiation protein Mcl-1, sequence (Q07820 whole entry): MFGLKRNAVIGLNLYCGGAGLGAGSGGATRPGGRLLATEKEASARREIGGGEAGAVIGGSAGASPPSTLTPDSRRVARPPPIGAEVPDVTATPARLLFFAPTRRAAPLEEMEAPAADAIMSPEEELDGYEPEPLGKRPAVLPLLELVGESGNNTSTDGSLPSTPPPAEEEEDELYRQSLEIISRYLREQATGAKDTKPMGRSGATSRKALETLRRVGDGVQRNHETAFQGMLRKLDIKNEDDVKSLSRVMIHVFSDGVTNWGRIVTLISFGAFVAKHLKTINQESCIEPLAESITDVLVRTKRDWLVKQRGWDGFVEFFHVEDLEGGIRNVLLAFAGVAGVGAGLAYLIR
# Wee1-like protein kinase, sequence (P30291 whole entry): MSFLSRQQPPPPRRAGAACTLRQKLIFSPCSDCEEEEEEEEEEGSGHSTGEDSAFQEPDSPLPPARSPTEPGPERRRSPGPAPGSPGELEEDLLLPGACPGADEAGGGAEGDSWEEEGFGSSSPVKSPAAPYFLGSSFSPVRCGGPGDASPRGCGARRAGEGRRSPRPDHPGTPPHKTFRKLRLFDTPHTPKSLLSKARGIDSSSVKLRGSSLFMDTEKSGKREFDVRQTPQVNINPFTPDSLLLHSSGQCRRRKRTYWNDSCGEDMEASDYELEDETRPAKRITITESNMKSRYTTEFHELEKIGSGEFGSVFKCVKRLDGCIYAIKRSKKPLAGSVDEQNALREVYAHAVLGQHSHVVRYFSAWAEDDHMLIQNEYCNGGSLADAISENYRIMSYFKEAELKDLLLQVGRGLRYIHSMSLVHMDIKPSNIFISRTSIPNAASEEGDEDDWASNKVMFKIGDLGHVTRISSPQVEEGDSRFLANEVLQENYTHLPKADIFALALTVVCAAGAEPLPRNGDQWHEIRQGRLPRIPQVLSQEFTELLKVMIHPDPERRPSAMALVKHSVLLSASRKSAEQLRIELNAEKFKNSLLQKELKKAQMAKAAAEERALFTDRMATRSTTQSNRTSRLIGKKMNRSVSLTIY
# G2/mitotic-specific cyclin-B1, sequence (P14635 whole entry): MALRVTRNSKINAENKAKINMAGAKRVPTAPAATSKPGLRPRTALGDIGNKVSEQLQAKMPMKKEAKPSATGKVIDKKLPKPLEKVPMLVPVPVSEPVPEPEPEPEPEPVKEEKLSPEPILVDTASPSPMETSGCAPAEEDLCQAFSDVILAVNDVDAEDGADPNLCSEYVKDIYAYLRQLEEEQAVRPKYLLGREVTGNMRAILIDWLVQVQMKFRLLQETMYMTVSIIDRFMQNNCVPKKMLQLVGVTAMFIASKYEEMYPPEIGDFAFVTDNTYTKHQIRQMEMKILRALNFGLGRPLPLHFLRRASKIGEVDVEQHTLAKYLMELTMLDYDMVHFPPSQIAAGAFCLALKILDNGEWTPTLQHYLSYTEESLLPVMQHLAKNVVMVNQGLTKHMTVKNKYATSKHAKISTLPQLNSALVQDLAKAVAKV
# Nonstructural protein 1, sequence (Q194T2 whole entry): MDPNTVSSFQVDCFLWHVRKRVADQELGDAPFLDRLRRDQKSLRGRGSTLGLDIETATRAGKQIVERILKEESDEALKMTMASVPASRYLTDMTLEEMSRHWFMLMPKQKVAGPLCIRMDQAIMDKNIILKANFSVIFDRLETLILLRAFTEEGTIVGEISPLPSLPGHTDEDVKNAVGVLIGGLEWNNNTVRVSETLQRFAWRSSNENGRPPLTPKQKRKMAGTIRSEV
# Serine/threonine-protein phosphatase PP1-alpha catalytic subunit, sequence (P62136 whole entry): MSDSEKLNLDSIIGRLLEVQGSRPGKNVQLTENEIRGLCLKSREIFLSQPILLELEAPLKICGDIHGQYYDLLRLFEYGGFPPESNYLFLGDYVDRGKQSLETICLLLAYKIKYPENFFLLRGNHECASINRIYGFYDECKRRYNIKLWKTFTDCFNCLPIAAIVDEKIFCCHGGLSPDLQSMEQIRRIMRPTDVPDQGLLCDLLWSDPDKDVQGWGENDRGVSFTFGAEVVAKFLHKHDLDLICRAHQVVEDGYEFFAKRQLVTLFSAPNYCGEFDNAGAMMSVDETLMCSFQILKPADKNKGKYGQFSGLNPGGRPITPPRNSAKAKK
# Aspartyl aminopeptidase, sequence (Q8I2J3 whole entry): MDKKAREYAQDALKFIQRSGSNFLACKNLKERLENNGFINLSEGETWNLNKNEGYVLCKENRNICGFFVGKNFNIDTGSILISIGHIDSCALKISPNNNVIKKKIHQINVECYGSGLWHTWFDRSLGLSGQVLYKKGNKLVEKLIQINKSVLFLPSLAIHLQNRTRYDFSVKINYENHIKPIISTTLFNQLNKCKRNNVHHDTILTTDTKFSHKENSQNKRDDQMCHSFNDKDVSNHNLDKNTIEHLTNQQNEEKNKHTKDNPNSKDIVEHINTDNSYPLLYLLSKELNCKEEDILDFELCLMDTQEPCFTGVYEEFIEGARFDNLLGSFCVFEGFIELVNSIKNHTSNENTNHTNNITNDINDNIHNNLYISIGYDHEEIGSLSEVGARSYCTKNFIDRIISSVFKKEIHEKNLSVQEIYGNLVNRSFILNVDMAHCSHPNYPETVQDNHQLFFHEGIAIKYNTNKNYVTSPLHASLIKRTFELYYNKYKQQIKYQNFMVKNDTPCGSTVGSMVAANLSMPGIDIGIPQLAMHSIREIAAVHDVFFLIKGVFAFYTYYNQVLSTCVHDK
# Oxytocin receptor, sequence (P30559 whole entry): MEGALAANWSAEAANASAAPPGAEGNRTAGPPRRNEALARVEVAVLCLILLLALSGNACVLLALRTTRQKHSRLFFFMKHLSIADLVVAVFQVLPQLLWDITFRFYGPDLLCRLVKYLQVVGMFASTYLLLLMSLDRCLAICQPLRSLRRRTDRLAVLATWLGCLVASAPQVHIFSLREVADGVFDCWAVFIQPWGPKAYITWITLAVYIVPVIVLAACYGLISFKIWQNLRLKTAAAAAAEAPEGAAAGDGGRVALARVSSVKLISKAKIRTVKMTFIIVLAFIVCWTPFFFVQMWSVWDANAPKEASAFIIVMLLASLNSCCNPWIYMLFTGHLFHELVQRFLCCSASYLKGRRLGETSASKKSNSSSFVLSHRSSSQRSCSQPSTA
# Vasopressin V1a receptor, sequence (P37288 whole entry): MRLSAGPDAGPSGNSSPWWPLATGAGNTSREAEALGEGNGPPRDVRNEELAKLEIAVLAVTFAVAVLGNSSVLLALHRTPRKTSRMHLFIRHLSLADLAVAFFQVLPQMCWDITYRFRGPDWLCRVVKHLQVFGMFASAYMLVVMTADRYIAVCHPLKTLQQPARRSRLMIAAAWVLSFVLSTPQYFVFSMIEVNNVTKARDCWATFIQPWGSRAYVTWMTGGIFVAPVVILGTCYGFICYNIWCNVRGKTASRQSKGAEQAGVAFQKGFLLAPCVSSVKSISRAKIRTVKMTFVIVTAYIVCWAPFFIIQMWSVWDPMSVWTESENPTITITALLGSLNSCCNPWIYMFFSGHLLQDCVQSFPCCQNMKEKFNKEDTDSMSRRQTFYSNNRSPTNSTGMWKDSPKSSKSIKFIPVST
structure (smiles),measurement,setting,value
Cc1[nH]c2ccccc2c1C(=O)CN1C(=O)NC(C)(c2ccc(Cl)cc2Cl)C1=O (centres undefined),EC50,Oxytocin receptor,> 29.9 µM (not active)
same,EC50,[1],7.59 µM (active)
same,EC50,Vasopressin V1a receptor,> 29.9 µM (not active)
same,CC50,[2],13.9 µM (active)
same,CC50,[3],38.2 µM (active)
O=C(Nc1nc(-c2ccccn2)cs1)C1CC(=O)N(c2ccc3c(c2)OCCO3)C1 (centres undefined),IC50,[4],5.98 µM (active)
same,IC50,[5],> 67 µM (not active)
same,IC50,Nonstructural protein 1,13.5 µM (active)
O=C(N=Nc1c(O)[nH]c2ccc(Br)cc12)c1ccccc1-n1cccc1,IC50,cells,> 50 µM (active)
same,CC50,[6],4.28 µM (active)
same,CC50,[7],1.15 µM (active)
same,EC50,Wee1-like protein kinase,> 49.7 µM (not active)
same,IC50,[8],> 80 µM (inactive)
same,EC50,[9],> 49.7 µM (not active)
Oc1ccc(C2=Nn3c(nnc3-c3ccco3)SC2)cc1O,IC50,[10],6.16 µM (active)
same,IC50,[11],> 50 µM (not active)
same,IC50,Large T antigen,3.26 µM (active)
same,IC50,Aspartyl aminopeptidase,1.84 µM (active)
same,IC50,Bcl-2-like protein 1,68.7 µM (not active)
same,AC50,[12],6.4 µM (active)
same,IC50,[13],> 50 µM (not active)
same,IC50,[14],12.2 µM (active)
same,AC50,[15],4.01 µM (active)
same,IC50,Procathepsin L,> 59.6 µM (not active)
